Experimental data: patent publication US20250304533A1, “THERAPEUTIC ALKALOID COMPOUNDS” (Sensorium Therapeutics, Inc., priority 2022, published 2025)
Where two headings read alike, the source gives them in different places.

How the values were obtained:
[1] = cited from earlier work
SERT = target: T1, SERT (Homo sapiens, UniProt P31645); assay: SERT Inhibition Assay of Example A1 (Neurotransmitter Transporter fluorescence uptake, stable 5HTT cells); type: cell-based
T1 construct: expressed in transfected cells
T1 sequence (P31645 whole entry, species assumed): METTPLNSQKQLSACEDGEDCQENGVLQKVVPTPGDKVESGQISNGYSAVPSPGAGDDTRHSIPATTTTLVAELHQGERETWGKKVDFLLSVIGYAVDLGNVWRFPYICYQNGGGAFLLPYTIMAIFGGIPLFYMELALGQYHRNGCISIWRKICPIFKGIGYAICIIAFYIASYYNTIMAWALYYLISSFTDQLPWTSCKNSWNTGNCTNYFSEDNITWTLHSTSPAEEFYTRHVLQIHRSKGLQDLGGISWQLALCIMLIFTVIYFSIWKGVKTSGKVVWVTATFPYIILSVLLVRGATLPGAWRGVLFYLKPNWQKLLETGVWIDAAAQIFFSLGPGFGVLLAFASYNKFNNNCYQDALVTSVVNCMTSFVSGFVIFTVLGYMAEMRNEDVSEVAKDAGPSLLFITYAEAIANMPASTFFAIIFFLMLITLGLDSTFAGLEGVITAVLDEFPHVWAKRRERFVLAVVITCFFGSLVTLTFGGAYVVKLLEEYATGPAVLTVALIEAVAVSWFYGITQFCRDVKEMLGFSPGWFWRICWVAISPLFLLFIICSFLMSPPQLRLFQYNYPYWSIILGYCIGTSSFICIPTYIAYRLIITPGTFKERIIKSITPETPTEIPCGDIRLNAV
Description: SERT inhibition was measured using a Neruotransmitter Transportation Fluorescence assay. Briefly, stable 5HTT cells were prepared in a 384 microwell plate. Compounds were prepared by in assay buffer (20 mM HEPES, 0.1% BSA). The compounds were added to the plated cells and incubated for 30 minutes at 37° C. 25 μL of dye solution (Molecular Devices Neurotransmitter Transporter Uptake Assay Kit) is added per well and incubated for 30 minutes at 37° C. The plates are then read on a plate reader.

PDE4A1A = target: T2, PDE4A1A (Homo sapiens, UniProt P27815); assay: Recombinant PDE4 Inhibition Assay of Example A2; type: biochemical; settings: recombinant enzyme
T2 construct: purchased BPSBioscience
T2 sequence (P27815 1-647 isoform P27815-4): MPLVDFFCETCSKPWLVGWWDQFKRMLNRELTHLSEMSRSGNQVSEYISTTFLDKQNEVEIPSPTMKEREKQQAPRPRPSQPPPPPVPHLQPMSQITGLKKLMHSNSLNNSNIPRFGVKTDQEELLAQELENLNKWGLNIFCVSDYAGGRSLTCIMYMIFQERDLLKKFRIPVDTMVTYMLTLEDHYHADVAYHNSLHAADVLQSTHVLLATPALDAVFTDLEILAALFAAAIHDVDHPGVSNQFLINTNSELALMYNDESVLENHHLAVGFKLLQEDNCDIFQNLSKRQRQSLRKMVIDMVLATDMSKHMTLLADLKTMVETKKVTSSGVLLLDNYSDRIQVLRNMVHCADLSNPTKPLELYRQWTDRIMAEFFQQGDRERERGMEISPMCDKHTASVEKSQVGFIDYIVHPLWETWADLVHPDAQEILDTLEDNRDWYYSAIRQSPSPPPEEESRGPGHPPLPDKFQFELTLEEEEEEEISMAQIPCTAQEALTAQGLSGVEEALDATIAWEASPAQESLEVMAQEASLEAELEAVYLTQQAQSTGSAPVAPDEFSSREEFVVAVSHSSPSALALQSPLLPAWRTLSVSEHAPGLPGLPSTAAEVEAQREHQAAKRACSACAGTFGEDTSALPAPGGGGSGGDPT
Description: (§1) Recombinant PDE assay inhibition can be measured according to the BPSBioscience PDE4 assay kit, as described below.
(§2) 1) Dilute 20 µM FAM-Cyclic-3′,5′-AMP stock 100-fold with PDE buffer to make a 200 nM solution. Make only sufficient quantity needed for the assay; store remaining […] stock solution in aliquots at −20° C. 2) Add 25 μl of FAM-Cyclic-3′,5′-AMP (200 nM) to each well designated “Positive Control”, “Test Inhibitor”, and “Substrate Control”. 3) Add 20 μl of PDE assay buffer to each well designated “Substrate Control” and 45 μl of PDE assay buffer to each well designated “Blank”. 4) Add 5 μl of inhibitor solution to each well designated “Test Inhibitor”. For the wells labeled “Positive Control”, “Substrate Control” and “Blank”, add 5 μl of the same solution without inhibitor (inhibitor buffer). 5) Thaw PDE on ice. Upon first thaw, briefly spin tube containing enzyme to recover the full contents of the tube. 6) Dilute PDE4 in PDE buffer to 7.5 pg/μl (0.15 ng/reaction)*. Initiate reaction by adding 20 μl of PDE4 (7.5 pg/μl) to the wells designated “Positive Control” and “Test Inhibitor.” 7) Incubate at room temperature for 1 hour.
(§3) 1) Mix binding agent thoroughly and dilute binding agent 1:100 with binding agent diluent. 2) Add 100 μl diluted binding agent to each microwell. Incubate at room temperature for 1 hour with slow shaking. 3) Read the fluorescent polarization of the sample in a microtiter-plate reader equipped for the measurement of fluorescence polarization, capable of excitation at wavelengths ranging from 485±5 nm and detection of emitted light ranging from 528±10 nm. Blank value is subtracted from all other values.

PDE4B2 = target: T3, PDE4B2 (Homo sapiens, UniProt Q07343); assay: Recombinant PDE4 Inhibition Assay of Example A2; type: biochemical; settings: recombinant enzyme
T3 construct: purchased BPSBioscience
T3 sequence (Q07343 1-564 isoform Q07343-2): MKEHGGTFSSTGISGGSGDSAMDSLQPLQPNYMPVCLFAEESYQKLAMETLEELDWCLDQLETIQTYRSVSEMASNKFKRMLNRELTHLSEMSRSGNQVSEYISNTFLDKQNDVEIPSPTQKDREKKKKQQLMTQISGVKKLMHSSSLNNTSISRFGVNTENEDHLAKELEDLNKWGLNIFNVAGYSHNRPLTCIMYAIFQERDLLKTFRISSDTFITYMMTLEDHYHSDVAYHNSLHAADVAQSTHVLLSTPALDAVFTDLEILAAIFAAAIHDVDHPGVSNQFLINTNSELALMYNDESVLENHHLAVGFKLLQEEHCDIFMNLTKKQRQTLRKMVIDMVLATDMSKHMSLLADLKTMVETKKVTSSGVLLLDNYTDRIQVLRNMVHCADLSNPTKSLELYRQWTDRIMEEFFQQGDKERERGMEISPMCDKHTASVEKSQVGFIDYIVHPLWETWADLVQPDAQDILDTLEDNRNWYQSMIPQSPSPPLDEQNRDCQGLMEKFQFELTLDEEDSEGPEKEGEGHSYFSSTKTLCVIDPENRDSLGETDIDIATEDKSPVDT
Description: as §1, §2, §3

PDE4C1 = target: T4, PDE4C1 (Homo sapiens, UniProt Q08493); assay: Recombinant PDE4 Inhibition Assay of Example A2; type: biochemical; settings: recombinant enzyme
T4 construct: purchased BPSBioscience
T4 sequence (Q08493 whole entry): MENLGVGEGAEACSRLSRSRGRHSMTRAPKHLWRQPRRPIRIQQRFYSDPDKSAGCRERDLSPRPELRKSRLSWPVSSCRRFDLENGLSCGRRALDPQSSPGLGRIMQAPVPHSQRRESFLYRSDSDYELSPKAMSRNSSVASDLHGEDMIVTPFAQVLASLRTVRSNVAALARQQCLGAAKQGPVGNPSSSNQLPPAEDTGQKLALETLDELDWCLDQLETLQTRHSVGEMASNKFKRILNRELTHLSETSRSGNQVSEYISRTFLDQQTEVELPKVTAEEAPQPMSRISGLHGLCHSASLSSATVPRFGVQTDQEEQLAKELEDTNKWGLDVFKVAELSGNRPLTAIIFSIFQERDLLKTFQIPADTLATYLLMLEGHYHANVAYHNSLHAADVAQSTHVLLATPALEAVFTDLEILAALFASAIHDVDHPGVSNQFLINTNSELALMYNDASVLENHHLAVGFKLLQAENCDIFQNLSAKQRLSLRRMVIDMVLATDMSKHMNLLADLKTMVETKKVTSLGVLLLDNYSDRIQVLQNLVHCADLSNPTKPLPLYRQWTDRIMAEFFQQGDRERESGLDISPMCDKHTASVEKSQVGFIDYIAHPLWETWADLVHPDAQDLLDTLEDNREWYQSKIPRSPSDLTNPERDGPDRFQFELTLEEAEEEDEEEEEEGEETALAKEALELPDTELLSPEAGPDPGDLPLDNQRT
Description: as §1, §2, §3

PDE4D2 = target: T5, PDE4D2 (Homo sapiens, UniProt Q08499); assay: Recombinant PDE4 Inhibition Assay of Example A2; type: biochemical; settings: recombinant enzyme
T5 construct: purchased BPSBioscience
T5 sequence (Q08499 303-809): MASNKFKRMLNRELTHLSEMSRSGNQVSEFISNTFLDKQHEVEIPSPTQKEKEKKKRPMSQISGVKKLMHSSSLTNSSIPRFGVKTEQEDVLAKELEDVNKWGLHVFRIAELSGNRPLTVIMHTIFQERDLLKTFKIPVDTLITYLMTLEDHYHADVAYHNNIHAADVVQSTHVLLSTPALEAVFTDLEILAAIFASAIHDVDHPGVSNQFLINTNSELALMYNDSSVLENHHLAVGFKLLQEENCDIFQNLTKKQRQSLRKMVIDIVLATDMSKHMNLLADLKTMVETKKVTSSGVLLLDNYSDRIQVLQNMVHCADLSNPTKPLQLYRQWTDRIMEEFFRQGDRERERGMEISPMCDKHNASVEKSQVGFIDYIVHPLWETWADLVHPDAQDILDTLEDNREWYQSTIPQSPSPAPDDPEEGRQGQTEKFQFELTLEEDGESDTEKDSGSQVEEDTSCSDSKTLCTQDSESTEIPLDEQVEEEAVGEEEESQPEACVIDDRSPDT
Description: as §1, §2, §3

[2] = target: 5-HT transporter (“SERT”) (Homo sapiens, UniProt P31645); settings: Hill coefficient of binding curve, Harvey et al., 2011; cited from earlier work
5-HT transporter (“SERT”), sequence (P31645 whole entry, species assumed): as the sequence (P31645 whole entry, species assumed) above

[3] = class symbols, read-out: SERT IC50

## COc1ccc([C@@]23CCC(=O)C[C@@H]2N(C)CC3)cc1OC [(−) mesembrine]
[1]
  half-life in plasma: less than 2 hours

## COc1cc([C@@]23C=CC(=O)C[C@@H]2N(C)CC3)cc(I)c1OC [Compound 132, (3aR,7aS)-3a-(3-iodo-4,5-dimethoxy-phenyl)-1-methyl-2,3,7,7a-tetrahydroindol-6-one]
SERT; [3]
  IC50: 100 to 500 nM
SERT; read-out: SERT inhibition IC50
  IC50: < 1000 nM
PDE4A1A
  IC50: > 10 µM
PDE4B2
  IC50: > 10 µM
PDE4C1
  IC50: > 10 µM
PDE4D2
  IC50: > 10 µM

## COc1cc([C@@]23C=CC(=O)C[C@@H]2N(C)CC3)cc(F)c1OC [Compound 133, (3aR,7aS)-3a-(3-fluoro-4,5-dimethoxy-phenyl)-1-methyl-2,3,7,7a-tetrahydroindol-6-one]
SERT; [3]
  IC50: 100 to 500 nM
SERT; read-out: SERT inhibition IC50
  IC50: < 1000 nM
PDE4A1A
  IC50: 1 to 10 µM
PDE4B2
  IC50: 1 to 10 µM
PDE4C1
  IC50: > 10 µM
PDE4D2
  IC50: > 10 µM

## COc1ccc([C@@]23C=CC(=O)C[C@@H]2N(C)CC3)cc1OC [Mesembrenone]
[2]
  5-HT transporter (“SERT”) nH: 1.0

## COc1cc(C23C=CC(=O)CC2N(C)CC3)cc(OC)c1OC (centres unmarked) [Compound 144, 1-methyl-3a-(3,4,5-trimethoxyphenyl)-2,3,7,7a-tetrahydroindol-6-one]
SERT; [3]
  IC50: > 1000 nM
SERT; read-out: SERT inhibition IC50
  IC50: > 1000 nM
PDE4A1A
  IC50: > 10 µM
PDE4B2
  IC50: > 10 µM
PDE4C1
  IC50: > 10 µM
PDE4D2
  IC50: > 10 µM

## COc1cc([C@@]23C=CC(=O)CC2N(C)CC3)cc(Br)c1OC (stereo partly drawn) [Compound 130, (3aR)-3a-(3-bromo-4,5-dimethoxy-phenyl)-1-methyl-2,3,7,7a-tetrahydroindol-6-one]
SERT; [3]
  IC50: 500 to 1000 nM
SERT; read-out: SERT inhibition IC50
  IC50: < 1000 nM
PDE4A1A
  IC50: > 10 µM
PDE4B2
  IC50: > 10 µM
PDE4C1
  IC50: > 10 µM
PDE4D2
  IC50: > 10 µM
